Laboratory results taken from article PMC11995724, “Antibiotic target discovery by integrated phenotypic and activity-based profiling of electrophilic fragments” (Cell chemical biology, 2025).
Structures can show the parent of a compound that is named as a salt.

Test: in vitro
Conditions: human, hek293t cells

| SMILES | viability at 48 h, 25 µM [%] |
| --- | --- |
| C=CC(=O)Nc1cn(C)nc1OC(C)C [1-F14, N-[1-methyl-3-(propan-2-yloxy)-1H-pyrazol-4-yl]prop-2-enamide] | 71.2 |
| COc1ccc(NC(=O)C(C#N)=Cc2cccc(O)c2)cc1OC [8-F09, 2-cyano-N-(3,4-dimethoxyphenyl)-3-(3-hydroxyphenyl)prop-2-enamide] | 86.1 |
| CC(Cl)C(=O)c1ccc(C(C)(C)C)cc1 (centres unmarked) [10-D14, 1-(4-tert-butylphenyl)-2-chloropropan-1-one] | 77.6 |
| Cc1ccccc1NC(=O)C(C#N)=Cc1cc2c(cc1[N+](=O)[O-])OCO2 [9-P11, 2-cyano-N-(2-methylphenyl)-3-(6-nitro-1,3-dioxaindan-5-yl)prop-2-enamide] | 120 |
| COc1ccc([N+](=O)[O-])cc1N1C(=O)C=CC1=O [10-P13, 1-(2-methoxy-5-nitrophenyl)-2,5-dihydro-1H-pyrrole-2,5-dione] | 102 |
| CC(Cl)C(=O)NCC1(C2CC2)CCC1 (centres unmarked) [7-A06, 2-chloro-N-[(1-cyclopropylcyclobutyl)methyl]propanamide] | 81.1 |
| CC(Cl)C(=O)NCCN1C(=O)CSC1=O (centres unmarked) [5-M03, 2-chloro-N-[2-(2,4-dioxo-1,3-thiazolidin-3-yl)ethyl]propanamide] | 87.2 |
| COc1ccccc1[C@H]1C[C@H](NC(=O)CCl)C1 [7-L18, 2-chloro-N-[(1r,3r)-3-(2-methoxyphenyl)cyclobutyl]acetamide] | 0.928 |
| CCOc1ccccc1C=C(C#N)C(=O)Nc1ccc(Cl)cc1 [8-B09, N-(4-chlorophenyl)-2-cyano-3-(2-ethoxyphenyl)prop-2-enamide] | 82.9 |
| CC1CC1c1ccc(C=C(C#N)C(=O)Nc2ccc(C(=O)O)cc2)o1 (centres unmarked) [9-G16, 4-{2-cyano-3-[5-(2-methylcyclopropyl)furan-2-yl]prop-2-enamido}benzoic acid] | 133 |
| CCOC(=O)c1ccccc1NC(=O)CCl [4-B17, ethyl 2-(2-chloroacetamido)benzoate] | 45.3 |
| O=C(CCl)NC1CCCc2cn(C3CCCC3)nc21 (centres unmarked) [5-O09, 2-chloro-N-(2-cyclopentyl-4,5,6,7-tetrahydro-2H-indazol-7-yl)acetamide] | 20.7 |
| O=C(CCl)N1CCn2c(cc3ccccc32)C1 [5-A20, 2-chloro-1-{1H,2H,3H,4H-pyrazino[1,2-a]indol-2-yl}ethan-1-one] | 0.499 |
| O=C1C=CC(=O)N1c1ccc(F)cc1F [10-F15, 1-(2,4-difluorophenyl)-2,5-dihydro-1H-pyrrole-2,5-dione] | 89.5 |
| CC(Cl)C(=O)NC(C)(C)c1ccc(F)cc1F (centres unmarked) [6-E21, 2-chloro-N-[2-(2,4-difluorophenyl)propan-2-yl]propanamide] | 93.5 |
| CCN(Cc1ccc2c(c1)OCO2)C(=O)CCl [5-L07, N-[(1,3-dioxaindan-5-yl)methyl]-2-chloro-N-ethylacetamide] | 0.477 |
| CCCn1c(C)cc(C=C(C#N)C(=O)Nc2cccc(C#N)c2)c1C [8-N19, 2-cyano-N-(3-cyanophenyl)-3-(2,5-dimethyl-1-propyl-1H-pyrrol-3-yl)prop-2-enamide] | 107 |
| Cc1ccc(CNC(=O)C(C)Cl)cc1 (centres unmarked) [5-O03, 2-chloro-N-[(4-methylphenyl)methyl]propanamide] | 94.7 |
| N#CC(=Cc1ccccc1)C(=O)NC1CCCCCCC1 [8-G17, 2-cyano-N-cyclooctyl-3-phenylprop-2-enamide] | 46.6 |
| Cc1ccc(Oc2ccc(NC(=O)CCl)cc2)cc1 [4-K03, 2-chloro-N-[4-(4-methylphenoxy)phenyl]acetamide] | 0.0354 |
| COc1ccc(NC(=O)C(C)Cl)cc1OC (centres unmarked) [6-F12, 2-chloro-N-(3,4-dimethoxyphenyl)propanamide] | 109 |
| CC(Cl)C(=O)NCCC1=CCCCC1 (centres unmarked) [6-E11, 2-chloro-N-[2-(cyclohex-1-en-1-yl)ethyl]propanamide] | 99 |
| N#CC(C(=O)CCl)=C1NC(=O)c2ccccc2N1 [10-P14, 4-chloro-3-oxo-2-(4-oxo-1,2,3,4-tetrahydroquinazolin-2-ylidene)butanenitrile] | 110 |
| O=C(CCl)N(Cc1ccc(Cl)cc1)C12CC3CC(CC(C3)C1)C2 [4-H07, N-(adamantan-1-yl)-2-chloro-N-[(4-chlorophenyl)methyl]acetamide] | -0.34 |
| C=CC(=O)N1CCOC(c2ccc(F)c(C)c2)C1 (centres unmarked) [3-A09, 1-[2-(4-fluoro-3-methylphenyl)morpholin-4-yl]prop-2-en-1-one] | 38.4 |
| N#CC(C(=O)Nc1ccc2c(c1)OCCO2)=C1N=C(N)c2ccccc21 [8-L03, 2-(3-amino-1H-isoindol-1-ylidene)-2-cyano-N-(2,3-dihydro-1,4-benzodioxin-6-yl)acetamide] | 83.5 |
| C=CC(=O)N1CCC(C(=O)Nc2ccn(Cc3ccccn3)n2)CC1 [3-B07, 1-(prop-2-enoyl)-N-{1-[(pyridin-2-yl)methyl]-1H-pyrazol-3-yl}piperidine-4-carboxamide] | 53.3 |

| SMILES | viability at 48 h, 25 µM [%] |
| --- | --- |
| Cc1cccc(Cc2cnc(NC(=O)CCl)s2)c1 [4-B09, 2-chloro-N-{5-[(3-methylphenyl)methyl]-1,3-thiazol-2-yl}acetamide] | -0.447 |
| COc1ccc(NC(=O)c2ccccc2NC(=O)CCl)cc1 [4-L05, 2-(2-chloroacetamido)-N-(4-methoxyphenyl)benzamide] | 0.046 |
| Cc1ccccc1C(NC(=O)CCl)c1ccccc1C [7-J04, N-[bis(2-methylphenyl)methyl]-2-chloroacetamide] | 0.589 |
| O=C(CCl)NCCc1c(F)cccc1F [5-F20, 2-chloro-N-[2-(2,6-difluorophenyl)ethyl]acetamide] | 15.5 |
| C=CC(=O)NCCNC(=O)c1c(C)cc(C)nc1C [2-I12, N-{2-[(2,4,6-trimethylpyridin-3-yl)formamido]ethyl}prop-2-enamide] | 104 |
| C=CC(=O)NCC(C)(C)c1coc(-c2ccccc2)n1 [3-A03, N-[2-methyl-2-(2-phenyl-1,3-oxazol-4-yl)propyl]prop-2-enamide] | 45.6 |
| CCN(c1ccc(NC(=O)CCl)cc1)C(C)C [5-J08, 2-chloro-N-{4-[ethyl(propan-2-yl)amino]phenyl}acetamide hydrochloride] | 3.48 |
| C=CC(=O)N1CCC(C2CCOC2)C1 (centres unmarked) [1-H06, 1-[3-(oxolan-3-yl)pyrrolidin-1-yl]prop-2-en-1-one] | 70.3 |
| O=C(CCl)N[C@H]1CCCc2ccccc21 [6-I21, 2-chloro-N-[(1S)-1,2,3,4-tetrahydronaphthalen-1-yl]acetamide] | 24 |
| C=CC(=O)N[C@H]1C[C@H](S(C)(=O)=O)C1 [3-D18, N-[(1r,3r)-3-methanesulfonylcyclobutyl]prop-2-enamide] | 83.6 |
| Cc1nnnn1CCNC(=O)C(C)Cl (centres unmarked) [7-A19, 2-chloro-N-[2-(5-methyl-1H-1,2,3,4-tetrazol-1-yl)ethyl]propanamide] | 79 |
| COc1ccc(NC(=O)C(C#N)=Cc2cccc(Cl)c2Cl)cc1 [8-N04, 2-cyano-3-(2,3-dichlorophenyl)-N-(4-methoxyphenyl)prop-2-enamide] | 74.8 |
| C=CC(=O)Nc1onc(C2CCCCC2)c1CC(C)C [1-P12, N-[3-cyclohexyl-4-(2-methylpropyl)-1,2-oxazol-5-yl]prop-2-enamide] | 0.308 |
| C=CC(=O)NCCc1nnc(C(C)C)s1 [2-L05, N-{2-[5-(propan-2-yl)-1,3,4-thiadiazol-2-yl]ethyl}prop-2-enamide] | 61.9 |
| CCOc1ccc(NC(=O)CCl)cc1S(=O)(=O)N1CCCC1 [4-J16, 2-chloro-N-[4-ethoxy-3-(pyrrolidine-1-sulfonyl)phenyl]acetamide] | 1.41 |
| CC(Cl)C(=O)Nc1ccc(NC(=O)c2cccs2)cc1 (centres unmarked) [6-G07, N-[4-(2-chloropropanamido)phenyl]thiophene-2-carboxamide] | 101 |
| CC(Cl)C(=O)NC[C@H]1CCCN(C2CC2)[C@@H]1c1ccnn1C (mixture of isomers) [6-P20, rac-2-chloro-N-{[(2R,3S)-1-cyclopropyl-2-(1-methyl-1H-pyrazol-5-yl)piperidin-3-yl]methyl}propanamide] | 101 |
| N#CC(=Cc1ccncc1)C(=O)Nc1cccc(Cl)c1 [8-B19, N-(3-chlorophenyl)-2-cyano-3-(pyridin-4-yl)prop-2-enamide] | 85.5 |
| C=CC(=O)NCC1CN(Cc2cccc(C)c2)CCO1 (centres unmarked) [3-A05, N-({4-[(3-methylphenyl)methyl]morpholin-2-yl}methyl)prop-2-enamide] | 41 |
| N#CC(C(=O)Nc1ccccc1)=C1NCCCN1 [8-H10, 2-cyano-2-(1,3-diazinan-2-ylidene)-N-phenylacetamide] | 97.7 |
| CC(=O)Nc1ccc(C=C(C#N)C(=O)Nc2ccccc2Cl)cc1 [8-M11, N-(2-chlorophenyl)-2-cyano-3-(4-acetamidophenyl)prop-2-enamide] | 86.4 |
| C=CC(=O)N1CCC(C(=O)NC(C)c2cccc(C(F)(F)F)c2)CC1 (centres unmarked) [3-G13, 1-(prop-2-enoyl)-N-{1-[3-(trifluoromethyl)phenyl]ethyl}piperidine-4-carboxamide] | 40.6 |
| COCC(C)NC(=O)C(C#N)=Cc1cccc(F)c1F (centres unmarked) [9-F09, 2-cyano-3-(2,3-difluorophenyl)-N-(1-methoxypropan-2-yl)prop-2-enamide] | 114 |
| C=CC(=O)N1CCC(C(=O)Nc2nncn2C)(c2ccccc2)CC1 [3-O12, N-(4-methyl-4H-1,2,4-triazol-3-yl)-4-phenyl-1-(prop-2-enoyl)piperidine-4-carboxamide] | 106 |
| CC(C)NC(=O)C(C#N)=Cc1ccccc1 [8-L05, 2-cyano-3-phenyl-N-(propan-2-yl)prop-2-enamide] | 104 |
| Cc1ccc(C2=NN(C(=O)CCl)C(c3cccs3)C2)cc1 (centres unmarked) [4-O22, 2-chloro-1-[3-(4-methylphenyl)-5-(thiophen-2-yl)-4,5-dihydro-1H-pyrazol-1-yl]ethan-1-one] | -0.0957 |
